# In patent US4536335A, “Carbapenem antibiotics” (Bristol-Myers Company, priority 1983, dated 1985):
# Read-outs that look alike come from different tables or passages of the source.
# Experiments:
# K. pneumoniae A20468 = experiment: In vitro MIC, tube dilution; assay type: cell-based; details: tube dilution, Nutrient Broth, overnight incubation at 37° C.; additional data table
# K. pneumoniae A-9664 = experiment: In vitro MIC, tube dilution; assay type: cell-based; details: tube dilution, Nutrient Broth, overnight incubation at 37° C.; additional data table
# S. aureus A-9606 = experiment: Protective effect in the intramuscular treatment of infected mice (PD50); assay type: in vivo; details: Staphylococcus aureus, A9606, im; mice infected i.p. (Ex. 2: 2 × 10^9 organisms; Ex. 4 and 5: ~9 × 10^7), treated i.m. 0 and 2 h postinfection; read-out: PD50/treatment, S. aureus A-9606
# Method: The PD50 (dose in mg/kg required to give protection to 50% of the infected mice) is indicated.
# were treated i.m. with drugs 0 and 2 h postinfection.
# [1] = Blood levels in mice after intramuscular administration; assay type: in vivo; details: mouse, intramuscular dose of 20 mg/kg; 20 mg/kg
# Excerpt: Compounds were solubilized in 0.1 M phosphate buffer pH 7. Values are fro
# a single test; 4 mice used per compound.
# *t1/2 refers to halflife in minutes
# **AUC refers to the area under the blood concentrationtime curve
# (§1) Also shown is the urinary recovery in the mice.
# Compounds were solubilized in 0.1 M phosphate buffer, pH 7.
# Values based on a single test; 4 mice per compound.
# *T1/2 refers to halflife in minutes
# P. rettgeri A22424 = experiment: In vitro MIC, tube dilution; assay type: cell-based; details: tube dilution, Nutrient Broth, overnight incubation at 37° C.; additional data table
# P. aeruginosa A-9843A = experiment: In vitro MIC, tube dilution; assay type: cell-based; details: Pseudomonas aeruginosa, A9843A, Nutrient Broth, overnight incubation at 37° C., additional data table
# E. cloacae A-9656 = experiment: In vitro MIC, tube dilution; assay type: cell-based; details: Enterobacter cloacae, A9656, tube dilution, Nutrient Broth, overnight incubation at 37° C.; additional data table
# [2] = Urinary recovery after intramuscular administration to mice; assay type: in vivo; details: mouse, intramuscular dose of 20 mg/kg, 0-6 hour collection, 360 min
# Method: Compounds were solubilized in 0.1 M phosphate buffer pH 7. Values are from a single test; 4 mice per compound.
# as §1
# ***Recovery based on 0-6 hour collection
# S. pyogenes A-9604 = experiment: In vitro MIC, tube dilution; assay type: cell-based; details: Streptococcus pyogenes, A9604, tube dilution, Nutrient Broth, overnight incubation at 37° C.; additional data table
# P. mirabilis A-9900 = experiment: In vitro MIC, tube dilution; assay type: cell-based; details: Proteus mirabilis, A9900, tube dilution, Nutrient Broth, overnight incubation at 37° C.; additional data table
# P. morganii A15153 = experiment: In vitro MIC, tube dilution; assay type: cell-based; details: tube dilution, Nutrient Broth, overnight incubation at 37° C.; additional data table
# P. vulgaris A21559 = experiment: In vitro MIC, tube dilution; assay type: cell-based; details: tube dilution, Nutrient Broth, overnight incubation at 37° C.; additional data table
# P. aeruginosa A21213 = experiment: In vitro MIC, tube dilution; assay type: cell-based; details: Pseudomonas aeruginosa, A21213, tube dilution, Nutrient Broth, overnight incubation at 37° C.; additional data table
# S. aureus A-9537 = experiment: In vitro MIC, tube dilution; assay type: cell-based; details: Staphylococcus aureus, overnight incubation at 37° C., additional data table
# S. marcescens A20019 = experiment: In vitro MIC, tube dilution; assay type: cell-based; details: tube dilution, Nutrient Broth, overnight incubation at 37° C.; additional data table
# [3] = Half-life in phosphate buffer solution; assay type: physicochemical; details: 0.065 M, pH 7.4 phosphate buffer, 37° C.; listed as Fraction B
# Method: A solution of para-nitrobenzyl 3-[2-(N-methylthiomorpholinium diphenylphosphate)ethylthio]-6α-[1'-(R)-hydroxyethyl]-7-oxo-1-azabicyclo[3.2.0]hept-2-ene-2-carboxylate (1.31 g, 1.76 mmol) in 0.1 M pH 7.4 phosphate buffer (48.8 mL), tetrahydrofuran (20 mL) and diethyl ether (20 mL) was hydrogenated over 10% pd/C (1.5 g) in a Parr shaker for 1 h at 40 psi. The reaction mixture was diluted with diethyl ether (40 mL) and the phases were separated. The organic phase was washed with water (2×5 mL). The aqueous phases were combined, filtered through a #52 hardened filter paper, washed with diethyl ether (2×20 mL) and pumped under vacuum. The aqueous solution was poured on a silica gel reverse phase column and the desired carbapenem was eluted with 5% acetonitrile-water.
# To a solution of p-nitrobenzyl (5R,6S)-3-[2-(1-methylmorpholino)ethylthio]-6-[(R)-1-hydroxyethyl]-7-oxo-1-azabicyclo[3.2.0]hept-2-ene-2-carboxylate diphenylphosphate (0.360 g, 0.49 mmol) in 13 mL of phosphate buffer (0.05 M pH 7.4) was added 0.36 g of 10% palladium-on-charcoal, 20 mL of tetrahydrofuran and 20 mL of diethyl ether. This mixture was hydrogenated (Parr) at 32 psi for 1 h. The mixture was filtered through Celite and the filter pad was washed with H2 O and diethyl ether. The aqueous phase was separated and the pH was adjusted to 7.0 with additional pH 7.4 phosphate buffer. After removing residual organic solvents in vacuo the aqueous solution was applied to a C18 reverse-phase column.
# To a solution of (5R,6S)paranitrobenzyl 3-[2-(1,4-dimethyl-1-piperazinium)ethylthio]-6-[1-(R)-hydroxyethyl]-7-oxo- 1-azabicyclo[3.2.0]hept-2-ene-2-carboxylate diphenylphosphate (0.47 g, 0.623 mmol) in wet tetrahydrofuran (25 mL) was added diethyl ether (25 mL), potassium phosphate monobasic-sodium hydroxide buffer (13 mL, pH 7.22) and 10% palladium on charcoal (0.47 g). The resulting mixture was hydrogenated at 23° C. under 40 psi for 1 h. The two layers were separated and the organic layer was extracted with water (2×7 mL).
# To a cold (-10° C.) solution of (5R,6S)-3-[2 -(N-methyl-thiomorpholinium)ethylthio]-6-[1-(R)-hydroxyethyl]-7-oxo-1-azabicyclo(3.2.0)-hept-2-ene-2-carboxylate (608 mg, 1.65 mmol) in a 1:1 mixture of acetonitrile-water (9 mL) was added m-chloroperbenzoic acid (334.8 mg, 1.65 mmol) in small portion over a 1 hour period. The mixture was then diluted with water (15 mL) and washed with diethyl ether (3×15 mL).
# A mixture of (5R,6S) paranitrobenzyl 3-[2-(1,4,4-trimethyl-1-piperazinium)ethylthio]-6-[1R-hydroxyethyl]-7-oxo- 1-azabicyclo(3.2.0)hept-2-ene-2-carboxylate bischloride (0.40 g, 0.68 mmol), phosphate buffer (30 mL, 0.05M, pH 7.0), tetrahydrofuran (10 mL), ether (30 mL) and 10% palladium on charcoal (0.40 g) was hydrogenated at 23° C. under 35 psi for 1 h. The two phases were separated. The organic phase was extracted with water (10 mL).
# E. coli A20341-1 = experiment: In vitro MIC, tube dilution; assay type: cell-based; details: tube dilution, Nutrient Broth, overnight incubation at 37° C.; additional data table
# E. cloacae A-9659 = experiment: In vitro MIC, tube dilution; assay type: cell-based; details: tube dilution, Nutrient Broth, overnight incubation at 37° C.; additional data table
# Excerpt: N-formimidoyl thienamycin was included as a comparison compound.
# E. coli A15119 = experiment: In vitro MIC, tube dilution; assay type: cell-based; details: tube dilution, Nutrient Broth, overnight incubation at 37° C.; additional data table
# S. faecalis A20688 = experiment: In vitro MIC, tube dilution; assay type: cell-based; details: tube dilution, Nutrient Broth, overnight incubation at 37° C.; additional data table
# S. pneumoniae A-9585 = experiment: In vitro MIC, tube dilution; assay type: cell-based; details: Streptococcus pneumoniae, A9585, Nutrient Broth, overnight incubation at 37° C., additional data table
# [4] = system: S. aureus A-9606 (Pen-res.); experiment: In vitro MIC, tube dilution; assay type: cell-based; details: Staphylococcus aureus, Nutrient Broth, overnight incubation at 37° C., additional data table, read-out: MIC S. aureus (Pen-res.) A-9606
structure (smiles),measurement,setting,value
"C[C@@H](O)[C@H]1C(=O)N2C(C(=O)[O-])=C(SCC[N+]3(C)CC[S+]([O-])CC3)C[C@H]12 (single isomer, unassigned) [Ex. 5 comp. B]",MIC K. pneumoniae A20468,K. pneumoniae A20468,0.5 µg/mL
same,MIC K. pneumoniae A-9664,K. pneumoniae A-9664,0.25 µg/mL
same,ED50,S. aureus A-9606,0.39 mg/kg
same,Blood AUC,[1],4600 ng·h/mL
same,Blood Cmax,[1],12600 ng/mL
same,Blood T1/2,[1],0.167 h
same,MIC P. rettgeri A22424,P. rettgeri A22424,1 µg/mL
same,MIC,P. aeruginosa A-9843A,63 µg/mL
same,MIC,E. cloacae A-9656,0.25 µg/mL
same,Urine Recovery,[2],15 ± 3%
same,MIC,S. pyogenes A-9604,0.008 µg/mL
same,MIC,P. mirabilis A-9900,0.25 µg/mL
same,MIC M. morganii A15153,P. morganii A15153,0.5 µg/mL
same,MIC P. vulgaris A21559,P. vulgaris A21559,0.25 µg/mL
same,MIC,P. aeruginosa A21213,32 µg/mL
same,MIC,"S. aureus A-9537; A9537, 50% serum, tube dilution, read-out: MIC S. aureus-50% serum A-9537",0.06 µg/mL
same,MIC,"S. aureus A-9537; A9537, tube dilution, Nutrient Broth, read-out: MIC S. aureus A-9537",0.03 µg/mL
same,MIC S. marcescens A20019,S. marcescens A20019,0.25 µg/mL
same,T 1/2 (solution stability),[3],10.75 h
same,MIC E. coli A20341-1,E. coli A20341-1,0.13 µg/mL
same,MIC E. cloacae A-9659,E. cloacae A-9659,0.5 µg/mL
same,MIC E. coli A15119,E. coli A15119,0.13 µg/mL
same,MIC S. faecalis A20688,S. faecalis A20688,1 µg/mL
same,MIC,S. pneumoniae A-9585,0.004 µg/mL
same,MIC,[4],0.06 µg/mL
